≈ marks a conversion by molar mass, not a printed value. Read-outs that look alike come from different tables or passages of the source.
Tests used:
[1] = Kinetic solubility assay; type: physicochemical; details: 24 hours at room temperature (25±2° C.)
Experimental: Solubility of the compounds of the invention was assessed using kinetic solubility assay and compared to solubility of butenyl spinosyn. Stock solutions of spinosyn compounds were prepared in DMSO at 10 mM concentration). 10 uL of the stock solutions were added into 490 of in K.S. 5.4 buffer of pH 5.4 (80 mM phosphoric acid, acetic acid, boric acid buffer, adjusted the pH to pH 5.4 with 1 N HCl and 1N NaOH) or K.S. 7.4 buffer with pH of 7.4 (80 mM phosphoric acid, acetic acid, boric acid buffer, adjusted the pH to pH 7.4 with 1 N HCl and 1N NaOH). The solutions were incubated with shaking at room temperature (25±2° C.) for 24 hours. 200 uL of each solution were then transferred into a new MultiScreen filter plate (Membrane of polycarbonate) and filtered by millipore vacuum manifold, and the filtrate was collected. The concentrations of tested compounds in the filtered samples were analyzed by HPLC analysis calibrated by a standard curve generated by injection of 3 standard solutions of the relevant compound with concentrations of 1, 20, 200 μM.

[2] = system: Ostrinia nubilalis larvae; assay: Insecticide efficacy on corn leaves dipped in compound solution and infested with L1 larvae (Henderson-Tilton method); type: in vivo; details: for % Efficacy 3 days: 3 days post infestation; for % Efficacy 6 days: 6 days post infestation; for Emax: Ostrinia nubilalis; for insecticidal activity on Ostrinia nubilalis larvae (in words): compared with Spinosad / spinetoram
Experimental: Insecticide activities of the compounds of this invention were assessed in comparison with commercially available samples of spinosad (LGC (Dr. Ehrenstorfer); Product code: DRE-C16972830) and spinetoram (LGC (Dr. Ehrenstorfer); Product code: DRE-C16972770) Solutions of spinosyn compounds were prepared by adding 0.05% Tween 80, lowering pH to 5.95 and sonicating. Two concentrations of each compound were used, 0.1 μg/mL and 0.3 μg/mL, with each condition tested in four parallels.
Freshly collected corn leaves were dipped into the prepared solutions. After dipping leaves were left to dry at room temperature for 1 hour. Each dry leaf was then infested with 4 larvae (development stage L1), and the experimental device was incubated at 21° C.-23° C. for 24 h in order to optimize insect development. At two timings post infestation (3 days and 6 days), the insecticide efficacy is evaluated from the number of living larvae using the Henderson-Tilton method. Untreated control was integrated for normalization and validation of larvae health.

[3] = UV-stability of 5 mM solutions in acetonitrile, remaining compound by HPLC; type: physicochemical; details: for share of remaining compound 0 h: start value for both aliquots; for Purity changing: 0 h to 10 h
Experimental: Synthesized spinosyn compounds were used to prepare 5 mM solutions in acetonitrile. The solution was divided in 2 aliquots and one aliquot was exposed to UV light at 254 nm and the other aliquot was incubated in the same conditions without UV light exposure. Quantities of remaining starting compounds were determined by HPLC after 0 h, 1 h, 5 h and 10 h.

[4] = system: honey bees (Apis melifera carnica, Pollman 1879); assay: Single dose acute oral toxicity test on adult worker honey bees; type: in vivo
Experimental: Toxicity of the compounds of this invention towards honey bees (Apis melifera carnica, Pollman 1879) was assessed in comparison with commercially available samples of spinosad (LGC (Dr. Ehrenstorfer); Product code: DRE-C16972830) and the naturally produced compound butenyl spinosyn alpha 1. Solutions of spinosyn compounds were prepared in 100 mM ammonium acetate, pH=5, and later diluted in 50% (500 g/L) sucrose solution in water to final concentrations. Two final concentrations were used for each compound, 7.76 μmol/L and 15.53 μmol/L.
Single dose acute oral toxicity tests were conducted on adult worker bees according to previously described standard methods (Medrzycki at el., (2013)). Each compound and condition were tested in two parallels. Briefly, each parallel experiment consisted of 5 cages with 20 honey bees per cage. […] After uptake of the solutions honey bees were supplied with standard 50% sucrose solution and observed at 24 h and 48 h and the number of dead and live bees was estimated. Ammonium acetate solution with pH 5 was used as the negative control.

[5] = system: honey bees (Apis melifera carnica, Pollman 1879); details: previously established oral LD50 for honey bee; cited from earlier work
[6] = 0.078 nmol/bee oral single dose, 24 h after application
[7] = 0.078 nmol/bee oral single dose, 48 h after application
[8] = 0.155 nmol/bee oral single dose, 24 h after application
[9] = 0.155 nmol/bee oral single dose, 48 h after application
[10] = 25 °C, aqueous buffer, kinetic from dmso stock, K.S. 5.4 buffer pH 5.4, dose conc 200 μM, read-out: Kinetic Solubility pH = 5.4
[11] = 25 °C, aqueous buffer, kinetic from dmso stock, K.S. 7.4 buffer pH 7.4, dose conc 200 μM, read-out: Kinetic Solubility pH = 7.4
[12] = 72 h, read-out: % Efficacy 3 days, dose 0.1 μg a.i./ml, 3 days post infestation
[13] = 72 h, read-out: % Efficacy 3 days, dose 0.3 μg a.i./ml, 3 days post infestation
[14] = 144 h, read-out: % Efficacy 6 days, dose 0.1 μg a.i./ml, 6 days post infestation
[15] = 144 h, read-out: % Efficacy 6 days, dose 0.3 μg a.i./ml, 6 days post infestation

Compound | % Efficacy 3 days ([2]; dose 0.1 μg a.i./ml) [%] | % Efficacy 6 days ([2]; dose 0.1 μg a.i./ml) [%] | % Efficacy 3 days ([2]; dose 0.3 μg a.i./ml) [%] | % Efficacy 6 days ([2]; dose 0.3 μg a.i./ml) [%] | share of remaining compound 0 h [3] [%] | Purity changing ([3]; under UV light at 254 nm) [%] | share of remaining compound 1 h ([3]; under UV light at 254 nm) [%] | share of remaining compound 5 h ([3]; under UV light at 254 nm) [%] | share of remaining compound 10 h ([3]; under UV light at 254 nm) [%] | Purity changing ([3]; without UV) | share of remaining compound 1 h ([3]; without UV) [%] | share of remaining compound 5 h ([3]; without UV) [%] | share of remaining compound 10 h ([3]; without UV) [%] | % of surviving honey bees [4, 6] [%] | % of surviving honey bees [4, 7] [%] | % of surviving honey bees [4, 8] [%] | % of surviving honey bees [4, 9] [%] | solubility kinetic at 24 h [1, 10] [µM] | solubility kinetic at 24 h [1, 11] [µM] | further results
CCC=CC1CCCC(OC2CCC(N(C)C)C(C)O2)C(C)C(=O)C2=CC3C(C=CC4CC(OC5OC(C)C(OC)C(OC)C5OC)CC43)C2CC(=O)O1 (stereo not drawn) [Butenyl spinosyn, butenyl spinosyn α1, reference compound] | 33 | 56 | 79 | 100 | 90.0 | −30.4 | 88.6 | 70.9 | 59.6 | −0.6% | 90.6 | 90.7 | 89.4 | 57 | 37 | 32 | 6 | – | – | solubility kinetic at 24 h ([1]; K.S. 5.4 buffer pH 5.4, dose conc 200 μM, read-out: Kinetic Solubility pH = 5.4): 183.17 µM (≈ 139 µg/mL); solubility kinetic at 24 h ([1]; K.S. 7.4 buffer pH 7.4, dose conc 200 μM, read-out: Kinetic Solubility pH = 7.4): 3.52 µM (≈ 2.67 µg/mL); toxicity to honey bees in acute oral toxicity test (in words) ([4]; compared to the derivatives provided by this invention): higher toxicity to honey bees
CC/C=C/[C@H]1CCC[C@H](OC2CCC(N(C)C)C(C)O2)[C@@H](C)C(=O)C2=C[C@@H]3[C@@H](C=C[C@]4(O)C[C@@H](OC5OC(C)C(OC)C(OC)C5OC)C[C@@H]34)[C@@H]2CC(=O)O1 (stereo partly drawn) [Compound A1, 7-hydroxy butenyl spinosyn α1] | – | – | – | – | 90.7 | −38.5 | 86.6 | 71.3 | 52.2 | +0.2% | 90.7 | 90.8 | 90.9 | – | – | – | – | 192 (≈ 149 µg/mL) | 187 (≈ 144 µg/mL) | Emax [2, 12]: 2%; Emax [2, 13]: 15%; Emax [2, 14]: 2%; Emax [2, 15]: 19%
CC/C=C/[C@H]1CCC[C@H](OC2CCC(N(C)C)C(C)O2)[C@@H](C)C(=O)C2=C[C@@H]3[C@@H](C=C[C@]4(OC)C[C@@H](OC5OC(C)C(OC)C(OC)C5OC)C[C@@H]34)[C@@H]2CC(=O)O1 (stereo partly drawn) [Compound H1, 7-methoxy butenyl spinosyn α1] | – | – | – | – | 96.0 | −22.5 | 95.6 | 87.5 | 73.5 | +0.7% | 96.5 | 96.9 | 96.7 | – | – | – | – | 183 (≈ 144 µg/mL) | 77.1 (≈ 60.8 µg/mL) | Emax [2, 12]: 27%; Emax [2, 13]: 58%; Emax [2, 14]: 89%; Emax [2, 15]: 100%; insecticidal activity on Ostrinia nubilalis larvae (in words) [2]: extremely potent insecticidal activity
CC[C@H]1CCC[C@H](OC2CCC(N(C)C)C(C)O2)[C@@H](C)C(=O)C2=C[C@@H]3[C@@H](C=C[C@]4(OC)C[C@@H](OC5OC(C)C(OC)C(OC)C5OC)C[C@@H]34)[C@@H]2CC(=O)O1 (stereo partly drawn) [Compound H1a] | 15 | 41 | 64 | 93 | – | – | – | – | – | – | – | – | – | – | – | – | – | – | – | insecticidal activity on Ostrinia nubilalis larvae (in words) [2]: lower insecticidal activity
CC/C=C/[C@H]1CCC[C@H](OC2CCC(N(C)C)C(C)O2)[C@@H](C)C(=O)C2=C[C@@H]3[C@@H](C=C[C@]4(OCC)C[C@@H](OC5OC(C)C(OC)C(OC)C5OC)C[C@@H]34)[C@@H]2CC(=O)O1 (stereo partly drawn) [Compound H2, 7-ethoxy butenyl spinosyn al] | – | – | – | – | 93.2 | −53.5 | 87.6 | 67.8 | 39.7 | −0.9% | 93.6 | 93.7 | 92.3 | – | – | – | – | 166 (≈ 133 µg/mL) | 7.68 (≈ 6.16 µg/mL) | –
CC/C=C/[C@H]1CCC[C@H](OC2CCC([N+](C)(C)COC(=O)C(C)(C)C)C(C)O2)[C@@H](C)C(=O)C2=C[C@@H]3[C@@H](C=CC4(OC)C[C@@H](OC5OC(C)C(OC)C(OC)C5OC)C[C@@H]34)[C@@H]2CC(=O)O1 (stereo partly drawn) [Compound J1A-H1] | – | – | – | – | – | – | – | – | – | – | – | – | – | 98 | 73 | 86 | 26 | – | – | –
CC/C=C/[C@H]1CCC[C@H](OC2CCC([N+](C)(C)COC(=O)OC(C)C)C(C)O2)[C@@H](C)C(=O)C2=C[C@@H]3[C@@H](C=CC4(OC)C[C@@H](OC5OC(C)C(OC)C(OC)C5OC)C[C@@H]34)[C@@H]2CC(=O)O1 (stereo partly drawn) [Compound J7-H1] | – | – | – | – | – | – | – | – | – | – | – | – | – | 87 | 69 | 78 | 30 | – | – | –
spinetoram [Spinoteram, reference compound] | 58 | 81 | 85 | 96 | – | – | – | – | – | – | – | – | – | – | – | – | – | – | – | –
spinosad [SPN, reference compound] | 25 | 46 | 63 | 100 | – | – | – | – | – | – | – | – | – | – | – | – | – | – | – | LD50 [5]: 0.057 μg/bee

— patent US20240262856A1, “NOVEL SPINOSYN COMPOUNDS” (priority 2021, published 2024)
